Measurements from patent publication US11202783B2, “Use of aminoalkylbenzothiazepine derivatives” (CJ Healthcare Corporation, priority 2017, dated 2021).

How the values were obtained:
Type in all cases: in vivo, C57BL/6J mice
NAFLD-induced mice [1] = test: NAFLD activity score (NAS) in mouse model of NAFLD induced by STZ administration and high-fat diet (Example 3); details: 10 mg/kg; for Steatosis Score 0 (number of mice): score 0 = <5%; for Hepatocyte Ballooning Score 0 (number of mice): score 0 = None; for Steatosis Score 1 (number of mice): score 1 = 5% to 33%; for Lobular Inflammation Score 1 (number of mice): score 1 = <2 Foci/200×; for Hepatocyte Ballooning Score 1 (number of mice): score 1 = Some balloon cells; for Lobular Inflammation Score 2 (number of mice): score 2 = 2 to 4 Foci/200×; for Lobular Inflammation Score 3 (number of mice): score 3 = >4 Foci/200×
Description: Two-day-old C57BL/6J mice were administered with streptozotocin (STZ, 200 μg). Since the time the mice were 5 weeks old, they were supplied with a high-fat diet (60% fat) so as to induce NAFLD. The mouse model is an experimental animal model that is known to be capable of inducing diseases ranging from diabetes, fatty liver, steatohepatitis, liver fibrosis, to liver cancer within a short period of time of 20 weeks of age. Specifically, since the time the mice were 6 weeks old, they were orally administered with vehicle (0.5% hydroxypropyl methylcellulose+0.1% Tween 80) or Compound 1, which were prepared at various concentrations, at each concentration of 1 mg/kg, 3 mg/kg, and 10 mg/kg for 4 weeks, and the livers were removed by autopsy on the final day of the test. Parts of the removed livers were fixed in a 10% formalin solution for histopathology and tissue slides were prepared therefrom and subjected to H&E staining, whereas other parts of the removed livers were used for qRT-PCR analysis. The steatosis scores and relative mRNA expression levels were calculated in the same manner as in Example 1, and the results are shown in FIGS. 3 and 4, respectively. The calculated results were expressed in mean and standard deviation, and the significance of statistical differences between the groups was confirmed using Student's t-test (*; p<0.05).
As in Example 2, vehicle or Compound 1 at a dose of 10 mg/kg was administered to the animal model in which NAFLD was induced by STZ administration and a high-fat diet. […] Additionally, two comparative groups were prepared by administering each of obeticholic acid (OCA, product name: Ocaliva) and compound A (having the same mechanism of action with Compound 1) at a dose of 10 mg/kg each, instead of vehicle or Compound 1. NAS values were respectively calculated for Normal group, the vehicle group, Compound 1 (10 mg/kg) group, and the two comparative groups (OCA-administered and compound A-administered groups), as shown in Table 2. NAS represents the sum of the scores for respective symptoms, i.e., steatosis, lobular inflammation, and hepatocyte ballooning, and the scoring for each symptom was based on the criteria described in Table 1 below. Each group consisted of 8 mice, and the NAS value is defined as the sum of the mean scores from each symptom. As NAS value is higher, NAFLD is more severe. For example, when NAS value is 3 to 4 points, the mouse can be suspected to have non-alcoholic steatohepatitis (NASH), whereas when NAS value is 5 points or higher, the mouse can be determined to have NASH.

NAFLD-induced mice [2] = test: Steatosis score (H&E histology) in mouse model of NAFLD induced by high-fat high-cholesterol diet and fructose drinking water (Example 1); details: high-fat high-cholesterol diet containing 0.016% of compound for 12 weeks; vs Control group; FIG. 1
Text: (§1) Eight-week-old C57BL/6J mice were supplied with a high-fat high-cholesterol diet (60% fat and 0.5% cholesterol) and drinking water containing 4.2% fructose for 16 weeks so as to induce non-alcoholic fatty liver disease (NAFLD).
(§2) After the supply of a high-fat high-cholesterol diet for 4 weeks, the diet was replaced with another high-fat high-cholesterol diet prepared to contain Compound 1 at a concentration of 0.016% and supplied for an additional 12 weeks, and the livers were removed by autopsy on the final day of the test. Parts of the removed livers were fixed in a 10% formalin solution for histopathology and tissue slides were prepared therefrom and subjected to H&E staining, whereas other parts of the removed livers were used for quantitative real-time PCR (qRT-PCR) analysis.
The normal mice (not induced with NAFLD, denoted by “Normal” in drawings) and the mice induced with NAFLD using a high-fat high-cholesterol diet and fructose-containing drinking water (denoted by “Control” in drawings) were used as the control group. […]

[3] = system: mRNA expression levels of Srebp1, TIMP1 and Col1a1 in liver tissues; test: Liver mRNA expression by qRT-PCR in mouse model of NAFLD induced by high-fat high-cholesterol diet (Example 1); details: 0.016% in diet, 12 weeks; vs Control group; relative to Normal group; FIG. 2
Text: as §1, §2
(§3) Furthermore, the relative expression level of mRNA in Normal group was calculated by qRT-PCR. Specifically, the mRNA expression levels of Srebp1 (i.e., a gene marker associated with lipid synthesis), and TIMP1 and Col1a1 (i.e., gene markers associated with fibrosis), etc. were measured through the SYBR-green RT-PCR analysis of the removed liver tissues described above, and the relative expression levels were calculated based on those of Normal group and are shown in FIG. 2. The calculated data were expressed in mean and standard deviation, and the significance of statistical differences between groups was confirmed using Student's t-test (*; p<0.05).

NAFLD-induced mice [4] = test: Steatosis score in mouse model of NAFLD induced by STZ administration and high-fat diet (Example 2); details: oral, FIG. 3
Description: The normal mice (not induced with NAFLD, denoted by “Normal” in drawings) and the mice induced with NAFLD using a high-fat high-cholesterol diet and fructose-containing drinking water (denoted by “Control” in drawings) were used as the control group. Specifically, histological scoring was performed in the same manner as in the clinical pathology scoring as follows: score 0 when the area occupied by fat in the liver tissue is less than 5%, score 1 when the area occupied by fat in the liver tissue is 5% to 33%, score 2 when the area occupied by fat in the liver tissue is 34% to 66%, and score 3 when the area occupied by fat in the liver tissue exceeds 66%.
(§4) Two-day-old C57BL/6J mice were administered with streptozotocin (STZ, 200 μg). Since the time the mice were 5 weeks old, they were supplied with a high-fat diet (60% fat) so as to induce NAFLD. […] The steatosis scores and relative mRNA expression levels were calculated in the same manner as in Example 1, and the results are shown in FIGS. 3 and 4, respectively. The calculated results were expressed in mean and standard deviation, and the significance of statistical differences between the groups was confirmed using Student's t-test (*; p<0.05).

[5] = system: expression levels of the gene (mRNA) associated with lipid synthesis, inflammation, and fibrosis; test: Liver mRNA expression by qRT-PCR in mouse model of NAFLD induced by STZ administration and high-fat diet (Example 2); details: oral, 1 mg/kg, 3 mg/kg, and mg/kg for 4 weeks; vs Control group; FIG. 4
Description: as §3, §4

NAFLD-induced mice [6] = test: Degree of liver fibrosis by Sirius Red staining in STZ and high-fat diet NAFLD mouse model (Example 3); details: 10 mg/kg; fibrosis area increased by NASH induction; FIG. 6
Description: as §4, with “NAFLD. The mouse model is an experimental animal model that is known to be capable of inducing diseases ranging from diabetes, fatty liver, steatohepatitis, liver fibrosis, to liver cancer within a short period of time of 20 weeks of age.” for “NAFLD.”
As in Example 2, vehicle or Compound 1 at a dose of 10 mg/kg was administered to the animal model in which NAFLD was induced by STZ administration and a high-fat diet. […] NAS values were respectively calculated for Normal group, the vehicle group, Compound 1 (10 mg/kg) group, and the two comparative groups (OCA-administered and compound A-administered groups), as shown in Table 2. […] For example, when NAS value is 3 to 4 points, the mouse can be suspected to have non-alcoholic steatohepatitis (NASH), whereas when NAS value is 5 points or higher, the mouse can be determined to have NASH. […]

[7] = Blood lipid levels in STZ and high-fat diet NAFLD mouse model (Example 4); details: 1 mg/kg, 3 mg/kg, and 10 mg/kg; compared to vehicle administered group; FIG. 7
Description: as §4, with “NAFLD. The mouse model is an experimental animal model that is known to be capable of inducing diseases ranging from diabetes, fatty liver, steatohepatitis, liver fibrosis, to liver cancer within a short period of time of 20 weeks of age.” for “NAFLD.”
Blood specimens were secured before autopsy by collecting blood samples from an experimental animal model prepared as in Example 2, in which NAFLD was induced by administering STZ and supplying a high-fat diet, and to which Compound 1 was administered at doses of 1 mg/kg, 3 mg/kg, and 10 mg/kg. The obtained blood samples were centrifuged to separate blood plasma, and the remaining samples were analyzed for blood lipid levels (e.g., levels of total cholesterol, high-density lipoprotein (HDL), and low-density lipoprotein (LDL)) using a biochemical analyzer (Hitachi 7100), and the results are shown in FIG. 7. […]

SMILES | Steatosis Score 0 (number of mice) (NAFLD-induced mice [1]; n=8 mice per group) | Hepatocyte Ballooning Score 0 (number of mice) (NAFLD-induced mice [1]; n=8 mice per group) | Steatosis Score 1 (number of mice) (NAFLD-induced mice [1]; n=8 mice per group) | Lobular Inflammation Score 1 (number of mice) (NAFLD-induced mice [1]; n=8 mice per group) | Hepatocyte Ballooning Score 1 (number of mice) (NAFLD-induced mice [1]; n=8 mice per group) | Lobular Inflammation Score 2 (number of mice) (NAFLD-induced mice [1]; n=8 mice per group) | Lobular Inflammation Score 3 (number of mice) (NAFLD-induced mice [1]; n=8 mice per group) | steatosis score (NAFLD-induced mice [2]) | mRNA level of Col1a1 (liver) [3] | mRNA level of Srebp1 (liver) [3] | mRNA level of TIMP1 (liver) [3] | steatosis score (NAFLD-induced mice [4]; 1 mg/kg, 3 mg/kg and 10 mg/kg for 4 weeks, vs vehicle Control group) | steatosis score (NAFLD-induced mice [4]; dose of 1 mg/kg for 4 weeks, vs vehicle) | expression levels of the gene (mRNA) associated with lipid synthesis, inflammation, and fibrosis [5] | NAS (NAFLD activity score) (NAFLD-induced mice [1]; compared to comparative groups OCA and Compound A at identical dose, FIG. 5) | Hepatocyte Ballooning Score 2 (number of mice) (NAFLD-induced mice [1]; n=8 mice per group, score 2 = Many cells/Prominent ballooning) | fibrosis area (Sirius Red positive area) (NAFLD-induced mice [6]) | blood level of HDL [7] | blood level of LDL [7]
CC[C@H]1[C@@H](O)[C@@H]2[C@H](CC[C@]3(C)[C@@H]([C@H](C)CCC(=O)O)CC[C@@H]23)[C@@]2(C)CC[C@@H](O)C[C@@H]12 [OCA, obeticholic acid, reference compound] | 2 | 4 | 6 | 1 | 4 | 5 | 2 | – | – | – | – | – | – | – | – | – | – | – | –
CCCCC1(CCCC)CN(c2ccc(F)cc2)c2cc(SC)c(CNCC(=O)O)cc2S(=O)(=O)C1 [Compound 1, 2-(((3,3-dibutyl-5-(4-fluorophenyl)-7-methylthio-1,1-dioxido-2,3,4,5-tetrahydrobenzo[b][1,4]thiazepin-8-yl)methyl)amino)acetic acid] | 4 | 6 | 4 | 2 | 1 | 5 | 1 | significant decrease in steatosis score close to that of Normal group | remarkable decrease with statistical significance | remarkable decrease with statistical significance | remarkable decrease with statistical significance | lower steatosis scores | reduced steatosis score | significant decreases | significantly reduced NAS values | 1 | significant decrease in the fibrosis area | higher level of HDL | lower level of LDL
